From the supplement of paper PMC10307832

What was measured:
Test in all cases: relative viability (nuclei count vs DMSO), 5 days (fraction); higher = more cells survive
NCI-H2347 = tested on: NCI-H2347
Procedure, shortened: (§1)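 Lung cancer cell lines, seeded in 1536-well plates, were treated the following day by pin tool with a single drug or with five library-drug doses (not always all listed) in √10 steps on top of a fixed anchor-drug dose. Cells were fixed and nuclei stained in one step after 5 days, and nuclei were counted. Relative viability is the nuclei count for treated wells divided by that for vehicle wells, reported as medians of duplicate plates.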

UMC-11 = tested on: UMC-11
Procedure, shortened: as §1

HCC-15 = tested on: HCC-15
Procedure, shortened: as §1

SW 1573 = tested on: SW 1573
Procedure, shortened: as §1

NCI-H2126 = tested on: NCI-H2126
Procedure, shortened: as §1

LU99A = tested on: LU99A
Procedure, shortened: as §1

HOP-62 = tested on: HOP-62
Procedure, shortened: as §1

COR-L23 = tested on: COR-L23
Procedure, shortened: as §1

HCC-44 = tested on: HCC-44
Procedure, shortened: as §1

NCI-H2023 = tested on: NCI-H2023
Procedure, shortened: as §1

NCI-H650 = tested on: NCI-H650
Procedure, shortened: as §1

NCI-H1651 = tested on: NCI-H1651
Procedure, shortened: as §1

NCI-H1355 = tested on: NCI-H1355
Procedure, shortened: as §1

HARA = tested on: HARA
Procedure, shortened: as §1

LC-2-ad = tested on: LC-2-ad
Procedure, shortened: as §1

ABC-1 = tested on: ABC-1
Procedure, shortened: as §1

NCI-H1915 = tested on: NCI-H1915
Procedure, shortened: as §1

NCI-H2085 = tested on: NCI-H2085
Procedure, shortened: as §1

PC-14 = tested on: PC-14
Procedure, shortened: as §1

NCI-H838 = tested on: NCI-H838
Procedure, shortened: as §1

NCI-H1993 = tested on: NCI-H1993
Procedure, shortened: as §1

EPLC-272H = tested on: EPLC-272H
Procedure, shortened: as §1

Structure (SMILES): Nc1ccn([C@@H]2O[C@H](CO)[C@@H](O)[C@@H]2O)c(=O)n1 [Cytarabine] + CC(=O)c1c(C)c2cnc(Nc3ccc(N4CCNCC4)cn3)nc2n(C2CCCC2)c1=O [Palbociclib] (partner 0.5 µM)
- relative viability (NCI-H2347; first compound 0.005 µM): 0.416
- relative viability (NCI-H2347; first compound 0.01581 µM): 0.433
- relative viability (NCI-H2347; first compound 0.05 µM): 0.413
- relative viability (NCI-H2347; first compound 0.1581 µM): 0.386
- relative viability (NCI-H2347; first compound 0.5 µM): 0.407
- relative viability (UMC-11; first compound 0.005 µM): 0.371
- relative viability (UMC-11; first compound 0.01581 µM): 0.304
- relative viability (UMC-11; first compound 0.05 µM): 0.263
- relative viability (UMC-11; first compound 0.1581 µM): 0.236
- relative viability (UMC-11; first compound 0.5 µM): 0.219
- relative viability (HCC-15; first compound 0.005 µM): 0.743
- relative viability (HCC-15; first compound 0.01581 µM): 0.673
- relative viability (HCC-15; first compound 0.05 µM): 0.835
- relative viability (HCC-15; first compound 0.1581 µM): 0.671
- relative viability (HCC-15; first compound 0.5 µM): 0.514
- relative viability (SW 1573; first compound 0.005 µM): 0.334
- relative viability (SW 1573; first compound 0.01581 µM): 0.407
- relative viability (SW 1573; first compound 0.05 µM): 0.281
- relative viability (SW 1573; first compound 0.1581 µM): 0.147
- relative viability (SW 1573; first compound 0.5 µM): 0.117
- relative viability (NCI-H2126; first compound 0.005 µM): 0.352
- relative viability (NCI-H2126; first compound 0.01581 µM): 0.312
- relative viability (NCI-H2126; first compound 0.05 µM): 0.298
- relative viability (NCI-H2126; first compound 0.1581 µM): 0.277
- relative viability (NCI-H2126; first compound 0.5 µM): 0.261
- relative viability (LU99A; first compound 0.005 µM): 0.409
- relative viability (LU99A; first compound 0.01581 µM): 0.399
- relative viability (LU99A; first compound 0.05 µM): 0.391
- relative viability (LU99A; first compound 0.1581 µM): 0.388
- relative viability (LU99A; first compound 0.5 µM): 0.288
- relative viability (HOP-62; first compound 0.005 µM): 0.395
- relative viability (HOP-62; first compound 0.01581 µM): 0.297
- relative viability (HOP-62; first compound 0.05 µM): 0.234
- relative viability (HOP-62; first compound 0.1581 µM): 0.139
- relative viability (HOP-62; first compound 0.5 µM): 0.155
- relative viability (COR-L23; first compound 0.005 µM): 0.203
- relative viability (COR-L23; first compound 0.01581 µM): 0.228
- relative viability (COR-L23; first compound 0.05 µM): 0.176
- relative viability (COR-L23; first compound 0.1581 µM): 0.115
- relative viability (COR-L23; first compound 0.5 µM): 0.122
- relative viability (HCC-44; first compound 0.005 µM): 0.997
- relative viability (HCC-44; first compound 0.01581 µM): 0.942
- relative viability (HCC-44; first compound 0.05 µM): 0.911
- relative viability (HCC-44; first compound 0.1581 µM): 0.806
- relative viability (HCC-44; first compound 0.5 µM): 0.812
- relative viability (NCI-H2023; first compound 0.005 µM): 0.378
- relative viability (NCI-H2023; first compound 0.01581 µM): 0.221
- relative viability (NCI-H2023; first compound 0.05 µM): 0.129
- relative viability (NCI-H2023; first compound 0.1581 µM): 0.0971
- relative viability (NCI-H2023; first compound 0.5 µM): 0.088
- relative viability (NCI-H650; first compound 0.005 µM): 0.238
- relative viability (NCI-H650; first compound 0.01581 µM): 0.227
- relative viability (NCI-H650; first compound 0.05 µM): 0.159
- relative viability (NCI-H650; first compound 0.1581 µM): 0.157
- relative viability (NCI-H650; first compound 0.5 µM): 0.175
- relative viability (NCI-H1651; first compound 0.005 µM): 0.508
- relative viability (NCI-H1651; first compound 0.01581 µM): 0.514
- relative viability (NCI-H1651; first compound 0.05 µM): 0.551
- relative viability (NCI-H1651; first compound 0.1581 µM): 0.374
- relative viability (NCI-H1651; first compound 0.5 µM): 0.277
- relative viability (NCI-H1355; first compound 0.005 µM): 0.595
- relative viability (NCI-H1355; first compound 0.01581 µM): 0.325
- relative viability (NCI-H1355; first compound 0.05 µM): 0.396
- relative viability (NCI-H1355; first compound 0.1581 µM): 0.28
- relative viability (NCI-H1355; first compound 0.5 µM): 0.232
- relative viability (HARA; first compound 0.005 µM): 0.291
- relative viability (HARA; first compound 0.01581 µM): 0.212
- relative viability (HARA; first compound 0.05 µM): 0.221
- relative viability (HARA; first compound 0.1581 µM): 0.158
- relative viability (HARA; first compound 0.5 µM): 0.163
- relative viability (LC-2-ad; first compound 0.005 µM): 0.412
- relative viability (LC-2-ad; first compound 0.01581 µM): 0.417
- relative viability (LC-2-ad; first compound 0.05 µM): 0.505
- relative viability (LC-2-ad; first compound 0.1581 µM): 0.379
- relative viability (LC-2-ad; first compound 0.5 µM): 0.412
- relative viability (ABC-1; first compound 0.005 µM): 0.49
- relative viability (ABC-1; first compound 0.01581 µM): 0.736
- relative viability (ABC-1; first compound 0.05 µM): 0.625
- relative viability (ABC-1; first compound 0.1581 µM): 0.468
- relative viability (ABC-1; first compound 0.5 µM): 0.432
- relative viability (NCI-H1915; first compound 0.005 µM): 0.532
- relative viability (NCI-H1915; first compound 0.01581 µM): 0.47
- relative viability (NCI-H1915; first compound 0.05 µM): 0.37
- relative viability (NCI-H1915; first compound 0.1581 µM): 0.265
- relative viability (NCI-H1915; first compound 0.5 µM): 0.2
- relative viability (NCI-H2085; first compound 0.005 µM): 0.445
- relative viability (NCI-H2085; first compound 0.01581 µM): 0.425
- relative viability (NCI-H2085; first compound 0.05 µM): 0.393
- relative viability (NCI-H2085; first compound 0.1581 µM): 0.294
- relative viability (NCI-H2085; first compound 0.5 µM): 0.266
- relative viability (PC-14; first compound 0.005 µM): 0.432
- relative viability (PC-14; first compound 0.01581 µM): 0.366
- relative viability (PC-14; first compound 0.05 µM): 0.365
- relative viability (PC-14; first compound 0.1581 µM): 0.0885
- relative viability (PC-14; first compound 0.5 µM): 0.0651
- relative viability (NCI-H838; first compound 0.005 µM): 0.228
- relative viability (NCI-H838; first compound 0.01581 µM): 0.244
- relative viability (NCI-H838; first compound 0.05 µM): 0.209
- relative viability (NCI-H838; first compound 0.1581 µM): 0.2
- relative viability (NCI-H838; first compound 0.5 µM): 0.149
- relative viability (NCI-H1993; first compound 0.005 µM): 0.714
- relative viability (NCI-H1993; first compound 0.01581 µM): 0.489
- relative viability (NCI-H1993; first compound 0.05 µM): 0.518
- relative viability (NCI-H1993; first compound 0.1581 µM): 0.507
- relative viability (NCI-H1993; first compound 0.5 µM): 0.323
- relative viability (EPLC-272H; first compound 0.005 µM): 0.319
- relative viability (EPLC-272H; first compound 0.01581 µM): 0.29
- relative viability (EPLC-272H; first compound 0.05 µM): 0.281
- relative viability (EPLC-272H; first compound 0.1581 µM): 0.249
- relative viability (EPLC-272H; first compound 0.5 µM): 0.219
